Data from patent publication US20140357713A1, “ANTIMICROBIAL COMPOUNDS AND METHODS OF USE” (NexMed Holdings, Inc., priority 2012, published 2014).
Counter-ions that a name gives are not always drawn. Like-named read-outs stand apart in the source and are kept apart here. Each block holds one compound with its values, some of them ahead of it.

Assays:
[1] = tested on: Pseudomonas aeruginosa (ATCC 27853); assay: Time kill study, Example 33 (0 to 5 min); format: cell-based; details: 1×MIC
Method in brief: (§1)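 Read-out: Log10 CFU/mL by colony count on agar after 24 to 48 hrs. Exposure: strain suspension and compound solution at equal volume, CLSI method, samples at 0 min, 30 sec, 1 min and 5 mins diluted in test medium before plating.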

[2] = tested on: Escherichia coli (ATCC 25922); assay: Time kill study, Example 33 (0 to 5 min); format: cell-based; details: 1×MIC
Method in brief: as §1

[3] = tested on: Staphylococcus aureus (ATCC 29213); assay: Time kill study, Example 33 (0 to 5 min); format: cell-based; details: 1×MIC
Method in brief: as §1

[4] = pH (Table 1); format: physicochemical
[5] = Solubility (Sol., Table 1); format: physicochemical
[6] = tested on: Aspergillus niger (CMCC 98003); assay: Minimum inhibitory concentration (MIC) assay, Example 33; format: cell-based; details: Aspergillus niger
Method in brief: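 Conidia gently probed from sporulating colonies into RPMI 1640, set to 0.09-0.13 at 530 nm, then diluted 1:50 and mixed 1:2 with 2-fold serially diluted compounds. Following CLSI guidelines, incubation was at 35 °C before the MIC was recorded.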

[7] = tested on: Staphylococcus aureus; assay: Extended time kill study, Example 34 (0 to 24 h); format: cell-based
Method in brief: (§2)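 Strain suspensions prepared as for MIC testing were mixed 1:1 with compound solution at higher multiples of MIC. Samples taken over 0 to 24 h were diluted in test medium and plated on agar, and colonies were counted after 24–48 h incubation.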

[8] = tested on: Pseudomonas aeruginosa; assay: Extended time kill study, Example 34 (0 to 24 h); format: cell-based
Method in brief: as §2

[9] = 1 min, listed as Nex-88, hydrochloride

pH [4]: 2.04 | Sol. [5]: 46% | MIC ([6]; CMCC98003, Table 19 summary, read-out: MIC): > 12.5 mg/mL | MIC ([6]; CMCC98003, n = 1, read-out: MIC Aspergillus niger): > 12.5 mg/mL | MIC ([6]; CMCC98003, n = 2, read-out: MIC Aspergillus niger): > 12.5 mg/mL
SMILES: CCCCCCCCCCCCOC(=O)C(C)NC(C)C.Cl (stereo not drawn) [Nex-60, Dodecyl 2-(isopropylamino)propanoate hydrochloride]
Viable counts, Pseudomonas aeruginosa time kill study ([1]; 0.5 min): 4.6 Log10 CFU/mL | Viable counts, Pseudomonas aeruginosa time kill study ([1]; 1 min): 3.7 Log10 CFU/mL | Viable counts, Pseudomonas aeruginosa time kill study ([1]; 5 min): <3.52 Log10 CFU/mL | Viable counts, Pseudomonas aeruginosa time kill study ([1]; time 0): 5.58 Log10 CFU/mL | Viable counts, Escherichia coli time kill study ([2]; 0.5 min): <4.0 Log10 CFU/mL | Viable counts, Escherichia coli time kill study ([2]; 1 min): 3.7 Log10 CFU/mL | Viable counts, Escherichia coli time kill study ([2]; 5 min): <3.52 Log10 CFU/mL | Viable counts, Escherichia coli time kill study ([2]; time 0): 5.88 Log10 CFU/mL | Viable counts, Staphylococcus aureus time kill study ([3]; 0.5 min): 6.23 Log10 CFU/mL | Viable counts, Staphylococcus aureus time kill study ([3]; 1 min): 6.25 Log10 CFU/mL | Viable counts, Staphylococcus aureus time kill study ([3]; 5 min): 6.21 Log10 CFU/mL | Viable counts, Staphylococcus aureus time kill study ([3]; time 0): 6.28 Log10 CFU/mL | Viable counts, Staphylococcus aureus time kill study ([7]; 1 × MIC, 1 h): 6.23 Log10 CFU/mL | Viable counts, Staphylococcus aureus time kill study ([7]; 1 × MIC, 2 h): 6.24 Log10 CFU/mL | Viable counts, Staphylococcus aureus time kill study ([7]; 1 × MIC, 4 h): 6.16 Log10 CFU/mL | Viable counts, Staphylococcus aureus time kill study ([7]; 1 × MIC, 6 h): 5.97 Log10 CFU/mL | Viable counts, Staphylococcus aureus time kill study ([7]; 1 × MIC, 24 h): 6.57 Log10 CFU/mL | Viable counts, Staphylococcus aureus time kill study ([7]; 1×MIC, time 0): 6.22 Log10 CFU/mL | Viable counts, Staphylococcus aureus time kill study ([7]; 2 × MIC, 1 h): <3 Log10 CFU/mL | Viable counts, Staphylococcus aureus time kill study ([7]; 2 × MIC, 2 h): <3 Log10 CFU/mL | Viable counts, Staphylococcus aureus time kill study ([7]; 2 × MIC, 4 h): <3 Log10 CFU/mL | Viable counts, Staphylococcus aureus time kill study ([7]; 2 × MIC, 6 h): <3 Log10 CFU/mL | Viable counts, Staphylococcus aureus time kill study ([7]; 2 × MIC, 24 h): <1 Log10 CFU/mL | Viable counts, Staphylococcus aureus time kill study ([7]; 2 × MIC, time 0): 6.20 Log10 CFU/mL | Viable counts, Staphylococcus aureus time kill study ([7]; 4 × MIC, 1 h): <3 Log10 CFU/mL | Viable counts, Staphylococcus aureus time kill study ([7]; 4 × MIC, 2 h): <3 Log10 CFU/mL | Viable counts, Staphylococcus aureus time kill study ([7]; 4 × MIC, 4 h): <3 Log10 CFU/mL | Viable counts, Staphylococcus aureus time kill study ([7]; 4 × MIC, 6 h): <3 Log10 CFU/mL | Viable counts, Staphylococcus aureus time kill study ([7]; 4 × MIC, 24 h): <1 Log10 CFU/mL | Viable counts, Staphylococcus aureus time kill study ([7]; 4 × MIC, time 0): 6.21 Log10 CFU/mL | Viable counts, Pseudomonas aeruginosa time kill study ([8]; 1 × MIC, 1 h): <1 Log10 CFU/mL | Viable counts, Pseudomonas aeruginosa time kill study ([8]; 1 × MIC, 2 h): <1 Log10 CFU/mL | Viable counts, Pseudomonas aeruginosa time kill study ([8]; 1 × MIC, 4 h): <1 Log10 CFU/mL | Viable counts, Pseudomonas aeruginosa time kill study ([8]; 1 × MIC, 6 h): <1 Log10 CFU/mL | Viable counts, Pseudomonas aeruginosa time kill study ([8]; 1 × MIC, 24 h): <1 Log10 CFU/mL | Viable counts, Pseudomonas aeruginosa time kill study ([8]; 1×MIC, time 0): 5.30 Log10 CFU/mL | Viable counts, Pseudomonas aeruginosa time kill study ([8]; 2 × MIC, 1 h): <1 Log10 CFU/mL | Viable counts, Pseudomonas aeruginosa time kill study ([8]; 2 × MIC, 2 h): <1 Log10 CFU/mL | Viable counts, Pseudomonas aeruginosa time kill study ([8]; 2 × MIC, 4 h): <1 Log10 CFU/mL | Viable counts, Pseudomonas aeruginosa time kill study ([8]; 2 × MIC, 6 h): <1 Log10 CFU/mL | Viable counts, Pseudomonas aeruginosa time kill study ([8]; 2 × MIC, 24 h): <1 Log10 CFU/mL | Viable counts, Pseudomonas aeruginosa time kill study ([8]; 2 × MIC, time 0): 5.28 Log10 CFU/mL | Viable counts, Pseudomonas aeruginosa time kill study ([8]; 4 × MIC, 1 h): <1 Log10 CFU/mL | Viable counts, Pseudomonas aeruginosa time kill study ([8]; 4 × MIC, 2 h): <1 Log10 CFU/mL | Viable counts, Pseudomonas aeruginosa time kill study ([8]; 4 × MIC, 4 h): <1 Log10 CFU/mL | Viable counts, Pseudomonas aeruginosa time kill study ([8]; 4 × MIC, 6 h): <1 Log10 CFU/mL | Viable counts, Pseudomonas aeruginosa time kill study ([8]; 4 × MIC, 24 h): <1 Log10 CFU/mL | Viable counts, Pseudomonas aeruginosa time kill study ([8]; 4 × MIC, time 0): 5.31 Log10 CFU/mL

SMILES: CCCCCCCCCCCCOC(=O)C(C)N(C)C (stereo not drawn) [Nex-05, Dodecyl 2-(dimethylamino)propanoate hydrochloride]
Viable counts, Pseudomonas aeruginosa time kill study [1, 9]: <3.70 Log10 CFU/mL | Viable counts, Pseudomonas aeruginosa time kill study ([1]; 5 min): <3.52 Log10 CFU/mL | Viable counts, Escherichia coli time kill study ([2]; 0.5 min, hydrochloride): <4.0 Log10 CFU/mL | Viable counts, Escherichia coli time kill study ([2]; 0.5 min, listed as Nex-88, hydrochloride): <4.0 Log10 CFU/mL | Viable counts, Escherichia coli time kill study [2, 9]: <3.70 Log10 CFU/mL | Viable counts, Escherichia coli time kill study ([2]; 5 min, listed as Nex-88, hydrochloride): <3.52 Log10 CFU/mL | pH ([4]; hydrochloride): 2.87 | Viable counts, Staphylococcus aureus time kill study ([7]; 1 × MIC, 1 h): <3 Log10 CFU/mL | Viable counts, Staphylococcus aureus time kill study ([7]; 1 × MIC, 2 h): <3 Log10 CFU/mL | Viable counts, Staphylococcus aureus time kill study ([7]; 1 × MIC, 4 h): <3 Log10 CFU/mL | Viable counts, Staphylococcus aureus time kill study ([7]; 1 × MIC, 6 h): <3 Log10 CFU/mL | Viable counts, Staphylococcus aureus time kill study ([7]; 1 × MIC, 24 h): <1 Log10 CFU/mL | Viable counts, Staphylococcus aureus time kill study ([7]; 1×MIC, time 0): 6.24 Log10 CFU/mL | Viable counts, Staphylococcus aureus time kill study ([7]; 2 × MIC, 1 h): <3 Log10 CFU/mL | Viable counts, Staphylococcus aureus time kill study ([7]; 2 × MIC, 2 h): <3 Log10 CFU/mL | Viable counts, Staphylococcus aureus time kill study ([7]; 2 × MIC, 4 h): <3 Log10 CFU/mL | Viable counts, Staphylococcus aureus time kill study ([7]; 2 × MIC, 6 h): <3 Log10 CFU/mL | Viable counts, Staphylococcus aureus time kill study ([7]; 2 × MIC, 24 h): <1 Log10 CFU/mL | Viable counts, Staphylococcus aureus time kill study ([7]; 2 × MIC, time 0): 6.25 Log10 CFU/mL | Viable counts, Staphylococcus aureus time kill study ([7]; 4 × MIC, 1 h): <3 Log10 CFU/mL | Viable counts, Staphylococcus aureus time kill study ([7]; 4 × MIC, 2 h): <3 Log10 CFU/mL | Viable counts, Staphylococcus aureus time kill study ([7]; 4 × MIC, 4 h): <3 Log10 CFU/mL | Viable counts, Staphylococcus aureus time kill study ([7]; 4 × MIC, 6 h): <3 Log10 CFU/mL | Viable counts, Staphylococcus aureus time kill study ([7]; 4 × MIC, 24 h): <1 Log10 CFU/mL | Viable counts, Staphylococcus aureus time kill study ([7]; 4 × MIC, time 0): 6.23 Log10 CFU/mL | Viable counts, Pseudomonas aeruginosa time kill study ([8]; 1 × MIC, 1 h): <1 Log10 CFU/mL | Viable counts, Pseudomonas aeruginosa time kill study ([8]; 1 × MIC, 2 h): <1 Log10 CFU/mL | Viable counts, Pseudomonas aeruginosa time kill study ([8]; 1 × MIC, 4 h): <1 Log10 CFU/mL | Viable counts, Pseudomonas aeruginosa time kill study ([8]; 1 × MIC, 6 h): <1 Log10 CFU/mL | Viable counts, Pseudomonas aeruginosa time kill study ([8]; 1 × MIC, 24 h): <1 Log10 CFU/mL | Viable counts, Pseudomonas aeruginosa time kill study ([8]; 1×MIC, time 0): 5.30 Log10 CFU/mL | Viable counts, Pseudomonas aeruginosa time kill study ([8]; 2 × MIC, 1 h): <1 Log10 CFU/mL | Viable counts, Pseudomonas aeruginosa time kill study ([8]; 2 × MIC, 2 h): <1 Log10 CFU/mL | Viable counts, Pseudomonas aeruginosa time kill study ([8]; 2 × MIC, 4 h): <1 Log10 CFU/mL | Viable counts, Pseudomonas aeruginosa time kill study ([8]; 2 × MIC, 6 h): <1 Log10 CFU/mL | Viable counts, Pseudomonas aeruginosa time kill study ([8]; 2 × MIC, 24 h): <1 Log10 CFU/mL | Viable counts, Pseudomonas aeruginosa time kill study ([8]; 2 × MIC, time 0): 5.22 Log10 CFU/mL | Viable counts, Pseudomonas aeruginosa time kill study ([8]; 4 × MIC, 1 h): <1 Log10 CFU/mL | Viable counts, Pseudomonas aeruginosa time kill study ([8]; 4 × MIC, 2 h): <1 Log10 CFU/mL | Viable counts, Pseudomonas aeruginosa time kill study ([8]; 4 × MIC, 4 h): <1 Log10 CFU/mL | Viable counts, Pseudomonas aeruginosa time kill study ([8]; 4 × MIC, 6 h): <1 Log10 CFU/mL | Viable counts, Pseudomonas aeruginosa time kill study ([8]; 4 × MIC, 24 h): <1 Log10 CFU/mL | Viable counts, Pseudomonas aeruginosa time kill study ([8]; 4 × MIC, time 0): 5.26 Log10 CFU/mL
